Patent US5698411A, “Method for determining activity of enzymes in metabolically active whole cells” (priority 1995, dated 1997)

How the values were obtained:
Assay type in all cases: cell-based, human
granulocytes [1] = assay: peptidase activity in leukemia and non-leukemia patients, granulocytes (Table 6C); parameters: unit not given here
Excerpt: (§1) Artificial intelligence was used to analyze data of cellular enzyme functions, and determine normal and disease states. Peptidases were used to distinguish leukemia from non-leukemia (output pattern). For input patterns lymphocyte and granulocyte cell types were used with aminopeptidases, cathepsins and dipeptidylpeptidase enzyme activities. In this Example, illustrated in Tables 6A-6C, three normals and three leukemia patients were used as known output patterns for the neural network to learn (in practice, the larger the learning set the more accurate unknown prediction will be). Unknowns were then presented to the learned algorithm as shown in the test case examples. Clinical diagnosis was confirmed by physicians. The trained neural network was able to correctly classify the leukemia from the non-leukemia.

lymphocytes [2] = assay: peptidase activity in leukemia and non-leukemia patients, lymphocytes (Table 6C); parameters: unit not given here
Excerpt: as §1

granulocytes [3] = assay: aberrant enzyme activities in febrile children, granulocytes (Table 7)
lymphocytes [4] = assay: aberrant enzyme activities in febrile children, lymphocytes (Table 7)
monocytes = assay: aberrant enzyme activities in febrile children, monocytes (Table 7)

## NCC(=O)N1CCC[C@H]1C(=O)Nc1ccc2c(c1)Oc1cc(NC(=O)[C@@H]3CCCN3C(=O)CN)ccc1C21OC(=O)c2ccccc21 [GP, (H-Gly--Pro)2 Rho .2TFA]
Granulocytes [1]; J4 11/21/91 acute leuk.
  enzyme activity, Grans: 10.75
Granulocytes [1]; J4 12/2/91 A L
  enzyme activity, Grans: 11.08
Granulocytes [1]; J4 12/3/91 acute leuk.
  enzyme activity, Grans: 1.28
Granulocytes [1]; J5 11/27/91 A M L
  enzyme activity, Grans: 8.95
Granulocytes [1]; J19 11/27/91 C L L
  enzyme activity, Grans: 1.39
Granulocytes [1]; J22 12/2/91 A M L
  enzyme activity, Grans: 13.98
Granulocytes [1]; J22 12/9/91 A M L
  enzyme activity, Grans: 11.52
Granulocytes [1]; N191 normal
  enzyme activity, Grans: 11.20
Granulocytes [1]; N192 normal
  enzyme activity, Grans: 11.22
Granulocytes [1]; N193 normal
  enzyme activity, Grans: 8.87
Granulocytes [1]; N194 normal
  enzyme activity, Grans: 12.49
Granulocytes [1]; N195 normal
  enzyme activity, Grans: 13.31
Granulocytes [1]; N197 normal
  enzyme activity, Grans: 15.85
Granulocytes [1]; N199 normal
  enzyme activity, Grans: 13.41
Granulocytes [1]; N200 normal
  enzyme activity, Grans: 12.74
Granulocytes [1]; N201 normal
  enzyme activity, Grans: 15.92
Granulocytes [1]; N202 normal
  enzyme activity, Grans: 14.44
Granulocytes [1]; N206 normal
  enzyme activity, Grans: 17.96
Granulocytes [1]; P68 tachycardia
  enzyme activity, Grans: 16.08
Granulocytes [1]; P69 pancreatic CA
  enzyme activity, Grans: 16.21
Granulocytes [1]; P70 cirrhosis/hemobilia
  enzyme activity, Grans: 16.42
Granulocytes [1]; P71 ac. pyelonephritis
  enzyme activity, Grans: 11.07
Lymphocytes [2]; J4 11/21/91 acute leuk.
  enzyme activity, Lymphs: 2.72
Lymphocytes [2]; J4 12/2/91 A L
  enzyme activity, Lymphs: 3.80
Lymphocytes [2]; J4 12/3/91 acute leuk.
  enzyme activity, Lymphs: 4.17
Lymphocytes [2]; J5 11/27/91 A M L
  enzyme activity, Lymphs: 3.40
Lymphocytes [2]; J19 11/27/91 C L L
  enzyme activity, Lymphs: 1.73
Lymphocytes [2]; J22 12/2/91 A M L
  enzyme activity, Lymphs: 1.73
Lymphocytes [2]; J22 12/9/91 A M L
  enzyme activity, Lymphs: 3.01
Lymphocytes [2]; N191 normal
  enzyme activity, Lymphs: 4.14
Lymphocytes [2]; N192 normal
  enzyme activity, Lymphs: 3.00
Lymphocytes [2]; N193 normal
  enzyme activity, Lymphs: 3.00
Lymphocytes [2]; N194 normal
  enzyme activity, Lymphs: 5.22
Lymphocytes [2]; N195 normal
  enzyme activity, Lymphs: 5.24
Lymphocytes [2]; N197 normal
  enzyme activity, Lymphs: 5.97
Lymphocytes [2]; N199 normal
  enzyme activity, Lymphs: 5.55
Lymphocytes [2]; N200 normal
  enzyme activity, Lymphs: 5.38
Lymphocytes [2]; N201 normal
  enzyme activity, Lymphs: 6.53
Lymphocytes [2]; N202 normal
  enzyme activity, Lymphs: 6.61
Lymphocytes [2]; N206 normal
  enzyme activity, Lymphs: 7.09
Lymphocytes [2]; P68 tachycardia
  enzyme activity, Lymphs: 5.92
Lymphocytes [2]; P69 pancreatic CA
  enzyme activity, Lymphs: 6.80
Lymphocytes [2]; P70 cirrhosis/hemobilia
  enzyme activity, Lymphs: 6.68
Lymphocytes [2]; P71 ac. pyelonephritis
  enzyme activity, Lymphs: 3.55

## CC(C)C[C@H](N)C(=O)NCC(=O)Nc1ccc2c(c1)Oc1cc(NC(=O)CNC(=O)[C@@H](N)CC(C)C)ccc1C21OC(=O)c2ccccc21 [LG]
Granulocytes [1]; J4 11/21/91 acute leuk.
  enzyme activity, Grans: 0.85
Granulocytes [1]; J4 12/2/91 A L
  enzyme activity, Grans: 0.79
Granulocytes [1]; N200 normal
  enzyme activity, Grans: 3.40
Granulocytes [1]; N202 normal
  enzyme activity, Grans: 2.70
Granulocytes [1]; P70 cirrhosis/hemobilia
  enzyme activity, Grans: 2.20
Granulocytes [1]; P71 ac. pyelonephritis
  enzyme activity, Grans: 4.00
Lymphocytes [2]; J4 11/21/91 acute leuk.
  enzyme activity, Lymphs: 0.16
Lymphocytes [2]; J4 12/2/91 A L
  enzyme activity, Lymphs: 0.18
Lymphocytes [2]; J4 12/3/91 acute leuk.
  enzyme activity, Lymphs: 0.19
Lymphocytes [2]; J5 11/27/91 A M L
  enzyme activity, Lymphs: 0.23
Lymphocytes [2]; J19 11/27/91 C L L
  enzyme activity, Lymphs: 0.02
Lymphocytes [2]; J22 12/2/91 A M L
  enzyme activity, Lymphs: 0.02
Lymphocytes [2]; J22 12/9/91 A M L
  enzyme activity, Lymphs: 0.61
Lymphocytes [2]; N199 normal
  enzyme activity, Lymphs: 0.85
Lymphocytes [2]; P68 tachycardia
  enzyme activity, Lymphs: 0.78
Lymphocytes [2]; P69 pancreatic CA
  enzyme activity, Lymphs: 2.00
Lymphocytes [2]; P70 cirrhosis/hemobilia
  enzyme activity, Lymphs: 0.79
Lymphocytes [2]; P71 ac. pyelonephritis
  enzyme activity, Lymphs: 0.68
Granulocytes [3]; P92 Adenitis
  aberrant enzyme activity, GRANS: .smallcircle.
Granulocytes [3]; P96 Viral Syndrome
  aberrant enzyme activity, GRANS: .smallcircle.
Granulocytes [3]; P97 Pyelonephritis
  aberrant enzyme activity, GRANS: .smallcircle.
Granulocytes [3]; P101 Fever -- Unknown Origin
  aberrant enzyme activity, GRANS: .smallcircle.
Granulocytes [3]; P102 UTI
  aberrant enzyme activity, GRANS: .smallcircle.
Lymphocytes [4]; P92 Adenitis
  aberrant enzyme activity, LYMPHS: .smallcircle.
Lymphocytes [4]; P97 Pyelonephritis
  aberrant enzyme activity, LYMPHS: .smallcircle.
Lymphocytes [4]; P102 UTI
  aberrant enzyme activity, LYMPHS: .smallcircle.
Lymphocytes [4]; P103 Viral Syndrome
  aberrant enzyme activity, LYMPHS: .smallcircle.
monocytes; P92 Adenitis
  aberrant enzyme activity, MONOS: .smallcircle.
monocytes; P96 Viral Syndrome
  aberrant enzyme activity, MONOS: .smallcircle.
monocytes; P97 Pyelonephritis
  aberrant enzyme activity, MONOS: .smallcircle.
monocytes; P101 Fever -- Unknown Origin
  aberrant enzyme activity, MONOS: .smallcircle.
monocytes; P103 Viral Syndrome
  aberrant enzyme activity, MONOS: .smallcircle.

## NC(=O)CC[C@H](N)C(=O)N[C@@H](CO)C(=O)Nc1ccc2c(c1)Oc1cc(NC(=O)[C@H](CO)NC(=O)[C@@H](N)CCC(N)=O)ccc1C21OC(=O)c2ccccc21 [QS, (H-L-Gln--Ser)2 Rho 110 .2TFA]
Granulocytes [1]; J4 11/21/91 acute leuk.
  enzyme activity, Grans: 0.22
Granulocytes [1]; J4 12/2/91 A L
  enzyme activity, Grans: 0.44
Granulocytes [1]; J4 12/3/91 acute leuk.
  enzyme activity, Grans: 0.19
Granulocytes [1]; J22 12/2/91 A M L
  enzyme activity, Grans: 0.10
Granulocytes [1]; J22 12/9/91 A M L
  enzyme activity, Grans: 0.24
Granulocytes [1]; N191 normal
  enzyme activity, Grans: 0.19
Granulocytes [1]; N192 normal
  enzyme activity, Grans: 0.15
Granulocytes [1]; N193 normal
  enzyme activity, Grans: 0.14
Granulocytes [1]; N194 normal
  enzyme activity, Grans: 0.07
Granulocytes [1]; N195 normal
  enzyme activity, Grans: 0.21
Granulocytes [1]; N197 normal
  enzyme activity, Grans: 0.24
Granulocytes [1]; N199 normal
  enzyme activity, Grans: 0.05
Granulocytes [1]; N200 normal
  enzyme activity, Grans: 0.06
Granulocytes [1]; N201 normal
  enzyme activity, Grans: 0.09
Granulocytes [1]; N202 normal
  enzyme activity, Grans: 0.08
Granulocytes [1]; N206 normal
  enzyme activity, Grans: 0.27
Granulocytes [1]; P68 tachycardia
  enzyme activity, Grans: 0.33
Granulocytes [1]; P69 pancreatic CA
  enzyme activity, Grans: 0.37
Granulocytes [1]; P70 cirrhosis/hemobilia
  enzyme activity, Grans: 0.19
Granulocytes [1]; P71 ac. pyelonephritis
  enzyme activity, Grans: 0.51
Lymphocytes [2]; J4 11/21/91 acute leuk.
  enzyme activity, Lymphs: 0.05
Lymphocytes [2]; J4 12/2/91 A L
  enzyme activity, Lymphs: 0.01
Lymphocytes [2]; J4 12/3/91 acute leuk.
  enzyme activity, Lymphs: 0.06
Lymphocytes [2]; J5 11/27/91 A M L
  enzyme activity, Lymphs: 0.07
Lymphocytes [2]; J19 11/27/91 C L L
  enzyme activity, Lymphs: 0.06
Lymphocytes [2]; J22 12/2/91 A M L
  enzyme activity, Lymphs: 0.02
Lymphocytes [2]; J22 12/9/91 A M L
  enzyme activity, Lymphs: 0.02
Lymphocytes [2]; N191 normal
  enzyme activity, Lymphs: 0.02
Lymphocytes [2]; N192 normal
  enzyme activity, Lymphs: 0.03
Lymphocytes [2]; N193 normal
  enzyme activity, Lymphs: 0.03
Lymphocytes [2]; N194 normal
  enzyme activity, Lymphs: 0.02
Lymphocytes [2]; N195 normal
  enzyme activity, Lymphs: 0.04
Lymphocytes [2]; N197 normal
  enzyme activity, Lymphs: 0.06
Lymphocytes [2]; N199 normal
  enzyme activity, Lymphs: 0.02
Lymphocytes [2]; N200 normal
  enzyme activity, Lymphs: 0.01
Lymphocytes [2]; N201 normal
  enzyme activity, Lymphs: 0.02
Lymphocytes [2]; N202 normal
  enzyme activity, Lymphs: 0.01
Lymphocytes [2]; N206 normal
  enzyme activity, Lymphs: 0.04
Lymphocytes [2]; P68 tachycardia
  enzyme activity, Lymphs: 0.02
Lymphocytes [2]; P69 pancreatic CA
  enzyme activity, Lymphs: 0.31
Lymphocytes [2]; P70 cirrhosis/hemobilia
  enzyme activity, Lymphs: 0.04
Lymphocytes [2]; P71 ac. pyelonephritis
  enzyme activity, Lymphs: 0.05
Granulocytes [3]; P97 Pyelonephritis
  aberrant enzyme activity, GRANS: .smallcircle.
Lymphocytes [4]; P92 Adenitis
  aberrant enzyme activity, LYMPHS: .smallcircle.
Lymphocytes [4]; P97 Pyelonephritis
  aberrant enzyme activity, LYMPHS: .smallcircle.
Lymphocytes [4]; P103 Viral Syndrome
  aberrant enzyme activity, LYMPHS: .smallcircle.
monocytes; P92 Adenitis
  aberrant enzyme activity, MONOS: .smallcircle.
monocytes; P97 Pyelonephritis
  aberrant enzyme activity, MONOS: .smallcircle.

## C[C@@H](O)[C@H](N)C(=O)N1CCC[C@H]1C(=O)Nc1ccc2c(c1)Oc1cc(NC(=O)[C@@H]3CCCN3C(=O)[C@@H](N)[C@@H](C)O)ccc1C21OC(=O)c2ccccc21 [TP, (H-L-Thr--Pro)2 Rho 110 .2TFA]
Granulocytes [1]; J4 11/21/91 acute leuk.
  enzyme activity, Grans: 5.96
Granulocytes [1]; J4 12/2/91 A L
  enzyme activity, Grans: 2.59
Granulocytes [1]; J4 12/3/91 acute leuk.
  enzyme activity, Grans: 1.93
Granulocytes [1]; J5 11/27/91 A M L
  enzyme activity, Grans: 2.72
Granulocytes [1]; J19 11/27/91 C L L
  enzyme activity, Grans: 2.95
Granulocytes [1]; J22 12/2/91 A M L
  enzyme activity, Grans: 2.33
Granulocytes [1]; J22 12/9/91 A M L
  enzyme activity, Grans: 2.51
Granulocytes [1]; N191 normal
  enzyme activity, Grans: 4.73
Granulocytes [1]; N192 normal
  enzyme activity, Grans: 4.62
Granulocytes [1]; N193 normal
  enzyme activity, Grans: 4.96
Granulocytes [1]; N194 normal
  enzyme activity, Grans: 3.77
Granulocytes [1]; N195 normal
  enzyme activity, Grans: 3.74
Granulocytes [1]; N197 normal
  enzyme activity, Grans: 3.82
Granulocytes [1]; N199 normal
  enzyme activity, Grans: 3.71
Granulocytes [1]; N200 normal
  enzyme activity, Grans: 4.69
Granulocytes [1]; N201 normal
  enzyme activity, Grans: 4.23
Granulocytes [1]; N202 normal
  enzyme activity, Grans: 4.44
Granulocytes [1]; N206 normal
  enzyme activity, Grans: 5.98
Granulocytes [1]; P68 tachycardia
  enzyme activity, Grans: 5.63
Granulocytes [1]; P69 pancreatic CA
  enzyme activity, Grans: 4.21
Granulocytes [1]; P70 cirrhosis/hemobilia
  enzyme activity, Grans: 4.02
Granulocytes [1]; P71 ac. pyelonephritis
  enzyme activity, Grans: 4.37
Lymphocytes [2]; J4 11/21/91 acute leuk.
  enzyme activity, Lymphs: 2.30
Lymphocytes [2]; J4 12/2/91 A L
  enzyme activity, Lymphs: 1.46
Lymphocytes [2]; J4 12/3/91 acute leuk.
  enzyme activity, Lymphs: 1.18
Lymphocytes [2]; J5 11/27/91 A M L
  enzyme activity, Lymphs: 1.32
Lymphocytes [2]; J19 11/27/91 C L L
  enzyme activity, Lymphs: 0.50
Lymphocytes [2]; J22 12/2/91 A M L
  enzyme activity, Lymphs: 0.99
Lymphocytes [2]; J22 12/9/91 A M L
  enzyme activity, Lymphs: 1.02
Lymphocytes [2]; N191 normal
  enzyme activity, Lymphs: 2.14
Lymphocytes [2]; N192 normal
  enzyme activity, Lymphs: 2.12
Lymphocytes [2]; N193 normal
  enzyme activity, Lymphs: 2.33
Lymphocytes [2]; N194 normal
  enzyme activity, Lymphs: 1.82
Lymphocytes [2]; N195 normal
  enzyme activity, Lymphs: 1.90
Lymphocytes [2]; N197 normal
  enzyme activity, Lymphs: 1.96
Lymphocytes [2]; N199 normal
  enzyme activity, Lymphs: 1.86
Lymphocytes [2]; N200 normal
  enzyme activity, Lymphs: 2.39
Lymphocytes [2]; N201 normal
  enzyme activity, Lymphs: 1.88
Lymphocytes [2]; N202 normal
  enzyme activity, Lymphs: 2.49
Lymphocytes [2]; N206 normal
  enzyme activity, Lymphs: 2.89
Lymphocytes [2]; P68 tachycardia
  enzyme activity, Lymphs: 1.90
Lymphocytes [2]; P69 pancreatic CA
  enzyme activity, Lymphs: 2.26
Lymphocytes [2]; P70 cirrhosis/hemobilia
  enzyme activity, Lymphs: 1.89
Lymphocytes [2]; P71 ac. pyelonephritis
  enzyme activity, Lymphs: 1.86
